Source: ChEMBL document CHEMBL4118108, “UNC-51-like Kinase 1: From an Autophagic Initiator to Multifunctional Drug Target” (J Med Chem, 2018)

What was measured:
MDA-MB-231 = experiment: Antiproliferative activity against human MDA-MB-231 cells by MTT assay; assay type: functional, cell-based
[1] = molecular target: T1, Serine/threonine-protein kinase ULK2 (Homo sapiens, UniProt Q8IYT8); experiment: Inhibition of GST-tagged ULK2 (unknown origin)
T1 sequence (Q8IYT8 whole entry): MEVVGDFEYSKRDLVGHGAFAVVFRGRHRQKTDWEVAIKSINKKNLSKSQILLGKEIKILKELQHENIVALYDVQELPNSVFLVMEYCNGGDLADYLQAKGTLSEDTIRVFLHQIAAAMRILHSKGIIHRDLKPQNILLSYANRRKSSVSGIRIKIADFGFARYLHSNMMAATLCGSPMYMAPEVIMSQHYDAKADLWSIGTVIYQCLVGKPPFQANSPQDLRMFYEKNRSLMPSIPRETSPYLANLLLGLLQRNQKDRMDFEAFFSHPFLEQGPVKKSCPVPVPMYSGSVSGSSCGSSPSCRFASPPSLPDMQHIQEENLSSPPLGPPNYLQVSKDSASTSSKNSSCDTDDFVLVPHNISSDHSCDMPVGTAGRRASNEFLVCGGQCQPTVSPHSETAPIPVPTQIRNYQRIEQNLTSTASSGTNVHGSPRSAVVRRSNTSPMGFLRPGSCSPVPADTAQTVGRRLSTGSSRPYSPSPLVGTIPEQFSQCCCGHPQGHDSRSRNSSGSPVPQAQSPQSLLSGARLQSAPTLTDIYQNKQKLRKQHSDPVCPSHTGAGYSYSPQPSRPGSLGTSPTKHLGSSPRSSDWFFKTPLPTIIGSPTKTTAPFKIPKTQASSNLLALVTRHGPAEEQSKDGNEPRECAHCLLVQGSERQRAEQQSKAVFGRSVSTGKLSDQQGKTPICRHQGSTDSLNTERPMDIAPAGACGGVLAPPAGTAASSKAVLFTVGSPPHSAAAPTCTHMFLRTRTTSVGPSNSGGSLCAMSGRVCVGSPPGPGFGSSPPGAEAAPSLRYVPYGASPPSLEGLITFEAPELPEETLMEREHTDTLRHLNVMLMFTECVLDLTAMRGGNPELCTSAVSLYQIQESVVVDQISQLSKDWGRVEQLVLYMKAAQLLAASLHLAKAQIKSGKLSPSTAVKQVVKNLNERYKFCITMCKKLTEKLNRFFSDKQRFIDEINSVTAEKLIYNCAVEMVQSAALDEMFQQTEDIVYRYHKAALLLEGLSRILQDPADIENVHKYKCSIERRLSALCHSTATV

IC50 (MDA-MB-231) [nM] | Structure (SMILES) | IC50 [1] [nM]
1660 | CC(C)CN(CC(=O)N1CCN(CC(OCc2ccc3ccccc3c2)c2ccc(Cl)cc2Cl)CC1)CC(C)C (configuration not stated) | 
 | CNC(=O)c1ccccc1Oc1nc(Nc2cc(OC)c(OC)c(OC)c2)ncc1Br | 711
